Assay results reported in patent US20100022562A1, “Use of Plant Growth Regulators to Reduce Abscisic Acid Related Plant Leaf Yellowing” (priority 2008, published 2010).

Tests used:
Pansy plants [1] = assay: Pansy yellow leaf number (leaf yellowing); type: in vivo
Method: (§1) All studies were conducted in the greenhouse at the research farm of Valent BioSciences Corporation (Long Grove, Ill.). Pansy plants were obtained either from local retailers as mature plants, or plugs from wholesale nurseries. Plugs of Pansy plants were transplanted into an 18-cell flat filled with Promix BX (available from Premier Horticulture Inc. Quakertown, Pa.) and grown for about 30 days prior to treatment. During growing periods, plants received daily irrigation and weekly fertilizer (1 g/L all purpose fertilizer 20-20-20, The Scotts Company, Marysville, Ohio).
(§2) Uniform plants were selected for the study. Prior to chemical treatment, plants were saturated with water and then drained for about two hours. A total of 20 mL chemical solution, which is equivalent to about 10% of the cell volume, was applied to each plant with 3 mL solution foliar applied to canopy and 17 mL solution drench applied to root zone. Unless specified, watering of plants was stopped after chemical treatment.
After chemical treatment, plants were arranged in a randomized complete block experimental design. The plants were rated daily for the extent of wilting on a scale from 1 (no wilting) to 4 (complete wilting) to generated a sales index rating. A rating of 2.5 was the point at which a plant was determined to be unmarketable and the previous day was recorded as the shelf life of that plant in days. […] Leaf transpiration rate was measured after treatment using a LI-1600 Steady State Porometer (LI-Cor, Lincoln, Nebr.). The transpiration rate of each treatment was calculated as the percentage of that of control at each day to reduce day-to-day variation caused by changes of environmental condition such as light intensity, humidity, and temperature.

Pansy plants [2] = assay: Pansy shelf life under drought (daily wilting rating, sales index); type: in vivo
Method: as §1, §2
After chemical treatment, plants were arranged in a randomized complete block experimental design. The plants were rated daily for the extent of wilting on a scale from 1 (no wilting) to 4 (complete wilting) to generated a sales index rating. A rating of 2.5 was the point at which a plant was determined to be unmarketable and the previous day was recorded as the shelf life of that plant in days. Yellow leaf number was counted at 3 days after chemical treatment. Leaf transpiration rate was measured after treatment using a LI-1600 Steady State Porometer (LI-Cor, Lincoln, Nebr.). The transpiration rate of each treatment was calculated as the percentage of that of control at each day to reduce day-to-day variation caused by changes of environmental condition such as light intensity, humidity, and temperature.

[3] = 0.3 mg, Matrix Orange, drought, 3 d after treatment, Table 2
[4] = 3 mg, Matrix Orange, drought, 3 d after treatment, Table 2
[5] = 0.3 mg, Matrix Orange, drought, Table 2
[6] = 3 mg, Matrix Orange, drought, Table 2

COC(=O)C=C(C)C=CC1(O)c2ccccc2C(=O)CC1(C)C (mixture of isomers) [PBI-488, tetralone, ester]
Yellow leaf number (Pansy plants [1]; [3]): 9.2 | Yellow leaf number (Pansy plants [1]; [4]): 11.5 | Shelf life (Pansy plants [2]; [5]): 5.3 days | Shelf life (Pansy plants [2]; [6]): 7.0 days

COC(=O)C=C(C)C#CC1(O)c2ccccc2C(=O)CC1(C)C (mixture of isomers) [PBI-702, tetralone, first carbon tail acetylene, ester]
Yellow leaf number (Pansy plants [1]; [3]): 10.8 | Yellow leaf number (Pansy plants [1]; [4]): 11.0 | Shelf life (Pansy plants [2]; [5]): 4.7 days | Shelf life (Pansy plants [2]; [6]): 7.0 days

O=C(Nc1ccccc1)Nc1ccnc(Cl)c1 [CPPU, N1-(2-chloro-4-pyridyl)-N3-phenylurea]
Yellow leaf number (Pansy plants [1]; 0.02 mg CPPU, Matrix Yellow, 3 d after treatment, Table 6): 7.7 | Yellow leaf number (Pansy plants [1]; 0.2 mg CPPU, Matrix Yellow, 3 d after treatment, Table 6): 5.7 | Shelf life (Pansy plants [2]; 0.02 mg CPPU, Matrix Yellow, Table 6): 3.2 days | Shelf life (Pansy plants [2]; 0.2 mg CPPU, Matrix Yellow, Table 6): 2.8 days

CC1=CC1 [MCP, 1-methylcyclopropene]
Yellow leaf number (Pansy plants [1]; 10 μL L^−1 MCP (12 hours) at 0 hrs, Delta Premium Pure White, 3 days after treatment, Table 22): 1.8 | Yellow leaf number (Pansy plants [1]; 10 μL L^−1 MCP (12 hours) at 0 hrs, Delta Premium Pure White, 7 days after treatment, Table 22): 4.0 | Yellow leaf number (Pansy plants [1]; 10 μL L^−1 MCP (12 hours) at +24 hrs, Delta Premium Pure White, 3 days after treatment, Table 22): 2.2 | Yellow leaf number (Pansy plants [1]; 10 μL L^−1 MCP (12 hours) at +24 hrs, Delta Premium Pure White, 7 days after treatment, Table 22): 4.0 | Yellow leaf number (Pansy plants [1]; 10 μL L^−1 MCP (12 hours) at −24 hrs, Delta Premium Pure White, 3 days after treatment, Table 22): 2.0 | Yellow leaf number (Pansy plants [1]; 10 μL L^−1 MCP (12 hours) at −24 hrs, Delta Premium Pure White, 7 days after treatment, Table 22): 4.0 | Yellow leaf number (Pansy plants [1]; 10 μL L^−1 MCP for 12 hours, Colossus Formula Mix, 3 days after treatment, Table 20): 0.2 | Yellow leaf number (Pansy plants [1]; 10 μL L^−1 MCP for 12 hours, Colossus Formula Mix, 8 days after treatment, Table 20): 1.7 | Yellow leaf number (Pansy plants [1]; 10 μL L^−1 MCP for 24 hours, Delta Premium Pure White, 3 days after treatment, Table 21): 0.0 | Yellow leaf number (Pansy plants [1]; 10 μL L^−1 MCP for 24 hours, Delta Premium Pure White, 8 days after treatment, Table 21): 0.7 | Yellow leaf number (Pansy plants [1]; 10 μL L^−1 MCP, Delta Premium Pure White, 3 days after treatment, Table 23): 3.2 | Yellow leaf number (Pansy plants [1]; 10 μL L^−1 MCP, Delta Premium Pure White, 7 days after treatment, Table 23): 6.7 | Shelf life (Pansy plants [2]; 10 μL L^−1 MCP (12 hours) at 0 hrs, Delta Premium Pure White, Table 22): 4.0 days | Shelf life (Pansy plants [2]; 10 μL L^−1 MCP (12 hours) at +24 hrs, Delta Premium Pure White, Table 22): 4.0 days | Shelf life (Pansy plants [2]; 10 μL L^−1 MCP (12 hours) at −24 hrs, Delta Premium Pure White, Table 22): 4.0 days | Shelf life (Pansy plants [2]; 10 μL L^−1 MCP for 12 hours, Colossus Formula Mix, no water, Table 20): 4.2 days | Shelf life (Pansy plants [2]; 10 μL L^−1 MCP for 24 hours, Delta Premium Pure White, Table 21): 7.0 days | Shelf life (Pansy plants [2]; 10 μL L^−1 MCP, Delta Premium Pure White, Table 23): 4.5 days

C/C(C#C[C@]1(O)C(C)CC(=O)CC1(C)C)=C/CO (some centres unmarked) [PBI-51]
Yellow leaf number (Pansy plants [1]; 3 mg, Delta Premium Pure Golden Yellow, advanced seedling stage (1 month old), drought, 3 d after treatment, Table 4): 8.2 | Yellow leaf number (Pansy plants [1]; 3 mg, Delta Premium Pure Golden Yellow, drought, 3 d after treatment, Table 3): 7.5 | Yellow leaf number (Pansy plants [1]; 30 mg, Delta Premium Pure Golden Yellow, advanced seedling stage (1 month old), drought, 3 d after treatment, Table 4): 8.8 | Yellow leaf number (Pansy plants [1]; 30 mg, Delta Premium Pure Golden Yellow, drought, 3 d after treatment, Table 3): 8.0 | Shelf life (Pansy plants [2]; 3 mg, Delta Premium Pure Golden Yellow, advanced seedling stage (1 month old), drought, Table 4): 3.7 days | Shelf life (Pansy plants [2]; 3 mg, Delta Premium Pure Golden Yellow, drought, Table 3): 5.0 days | Shelf life (Pansy plants [2]; 30 mg, Delta Premium Pure Golden Yellow, advanced seedling stage (1 month old), drought, Table 4): 3.5 days | Shelf life (Pansy plants [2]; 30 mg, Delta Premium Pure Golden Yellow, drought, Table 3): 5.0 days

C#CC1(C)CC(=O)C=C(C)C1(O)C=CC(C)=CC(=O)O (centres unmarked) [PBI-524, 8′ acetylene-ABA, acid]
Yellow leaf number (Pansy plants [1]; [3]): 11.0 | Yellow leaf number (Pansy plants [1]; [4]): 11.2 | Shelf life (Pansy plants [2]; [5]): 6.5 days | Shelf life (Pansy plants [2]; [6]): 8.8 days

COC(=O)C=C(C)C=CC1(O)C(C)=CC(=O)CC1(C)C1CC1 (centres unmarked) [PBI-696, 8′ cyclopropane ester]
Yellow leaf number (Pansy plants [1]; [3]): 9.0 | Shelf life (Pansy plants [2]; [5]): 5.3 days | Shelf life (Pansy plants [2]; [6]): 7.8 days

CCOC(=O)C1CC(=O)C(=C(O)C2CC2)C(=O)C1 (centres unmarked) [TE, trinexapac-ethyl]
Yellow leaf number (Pansy plants [1]; 30 mg, Matrix Yellow, drought, 3 d after treatment, Table 10): 8.7 | Shelf life (Pansy plants [2]; 30 mg, Matrix Yellow, drought, Table 10): 2.5 days
